In the CheMixHub viscosity set:

Assay: xn = mol fraction of the nth substance listed

ClCCCl + c1ccccc1
101 kPa
Details	viscosity [mPa·s]
293.15 K, x2 = 0.09	0.7903
293.15 K, x2 = 0.2	0.7512
293.15 K, x2 = 0.3	0.7172
293.15 K, x2 = 0.392	0.6824
293.15 K, x2 = 0.525	0.6583
293.15 K, x2 = 0.577	0.6545
293.15 K, x2 = 0.683	0.634
293.15 K, x2 = 0.81	0.636
293.15 K, x2 = 0.9	0.6404
298.15 K, x2 = 0.2	0.686
298.15 K, x2 = 0.4	0.634
298.15 K, x2 = 0.6	0.601
298.15 K, x2 = 0.8	0.59
313.15 K, x2 = 0.09	0.6098
313.15 K, x2 = 0.2	0.5936
313.15 K, x2 = 0.525	0.5387
313.15 K, x2 = 0.81	0.508

ClCCl + c1ccccc1
101.33 kPa
Details	viscosity [mPa·s]
293.15 K, x1 = 0.1454	0.591
293.15 K, x1 = 0.259	0.559
293.15 K, x1 = 0.3662	0.531
293.15 K, x1 = 0.4451	0.513
293.15 K, x1 = 0.5158	0.498
293.15 K, x1 = 0.5932	0.484
293.15 K, x1 = 0.6593	0.471
293.15 K, x1 = 0.714	0.463
293.15 K, x1 = 0.764	0.456
298.15 K, x1 = 0.2149	0.535
298.15 K, x1 = 0.2959	0.514
298.15 K, x1 = 0.3817	0.497
298.15 K, x1 = 0.4921	0.477
298.15 K, x1 = 0.5445	0.466
298.15 K, x1 = 0.5957	0.458
298.15 K, x1 = 0.6358	0.452
298.15 K, x1 = 0.6923	0.445
303.15 K, x1 = 0.1659	0.516
303.15 K, x1 = 0.2665	0.494
303.15 K, x1 = 0.3831	0.468
303.15 K, x1 = 0.4907	0.446
303.15 K, x1 = 0.5944	0.429
303.15 K, x1 = 0.6777	0.419
303.15 K, x1 = 0.7557	0.412
303.15 K, x1 = 0.8164	0.406

CC(=O)O + c1ccncc1
Details	viscosity [mPa·s]
293.15 K, 101 kPa, x2 = 0.104	4.421
293.15 K, 101 kPa, x2 = 0.2205	5.037
293.15 K, 101 kPa, x2 = 0.383	3.024
293.15 K, 101 kPa, x2 = 0.401	2.885
293.15 K, 101 kPa, x2 = 0.481	2.188
293.15 K, 101 kPa, x2 = 0.579	1.762
293.15 K, 101 kPa, x2 = 0.738	1.289
303.15 K, 101 kPa, x1 = 0.135	0.9842
303.15 K, 101 kPa, x1 = 0.2599	1.139
303.15 K, 101 kPa, x1 = 0.3756	1.346
303.15 K, 101 kPa, x1 = 0.4837	1.648
303.15 K, 101 kPa, x1 = 0.5841	2.075
303.15 K, 101 kPa, x1 = 0.6781	2.704
303.15 K, 101 kPa, x1 = 0.766	3.398
303.15 K, 101 kPa, x1 = 0.8509	3.624
303.15 K, 101 kPa, x1 = 0.9266	2.558
308.15 K, 101.33 kPa, x2 = 0.15	3.2
308.15 K, 101.33 kPa, x2 = 0.2	3.17
308.15 K, 101.33 kPa, x2 = 0.25	2.887
308.15 K, 101.33 kPa, x2 = 0.3	2.55
308.15 K, 101.33 kPa, x2 = 0.4	1.928
308.15 K, 101.33 kPa, x2 = 0.6	1.27
308.15 K, 101.33 kPa, x2 = 0.8	1.052
313.15 K, 101.33 kPa, x1 = 0.5	1.68
313.15 K, 101.33 kPa, x1 = 0.8	2.91
313.15 K, 101.33 kPa, x1 = 0.825	2.93
313.15 K, 101.33 kPa, x1 = 0.85	2.85
318.15 K, 101.33 kPa, x2 = 0.15	2.35
318.15 K, 101.33 kPa, x2 = 0.2	2.38
318.15 K, 101.33 kPa, x2 = 0.25	2.2
318.15 K, 101.33 kPa, x2 = 0.3	1.985
318.15 K, 101.33 kPa, x2 = 0.4	1.52
318.15 K, 101.33 kPa, x2 = 0.6	1.07
318.15 K, 101.33 kPa, x2 = 0.8	0.896

CCOC(N)=O + c1ccncc1
298.15 K, 101 kPa
Details	viscosity [mPa·s]
x1 = 0.0815	1.07
x1 = 0.1351	1.202
